Laboratory results from ChEMBL document CHEMBL6182886, “The Liebeskind-Srogl cross-coupling reaction towards the synthesis of biologically active compounds” (Eur J Med Chem, 2025).
In brackets after ≈: the same amount, converted by molar mass.

Columns and labels:
P815 = assay: Anticancer activity against mouse P815 cells assessed as reduction in cell viability measured for 48 hrs by MTT assay; assay type: functional, cell-based; settings: P815, 48 h
[1] = Anticancer activity against human HEP cells assessed as reduction in cell viability measured for 48 hrs by MTT assay; assay type: toxicity, cell-based
[2] = Cytotoxicity against human HOG.R5 cells; assay type: functional, cell-based
[3] = test system: Human immunodeficiency virus 1; assay: Antiviral activity against HIV-1 infected in human HOG.R5 cells assessed as reduction in viral growth; assay type: functional, organism-based; settings: Human immunodeficiency virus 1, HOG.R5
KB = assay: Cytotoxicity against human KB cells; assay type: functional, cell-based
L1210 = assay: Cytotoxicity against mouse L1210 cells; assay type: functional, cell-based
Cannabinoid receptor 2 = Cannabinoid receptor 2 (Mus musculus, UniProt P47936); assay: Binding affinity to mouse CB2 receptor extracted from HEK293 cell membrane assessed as inhibition constant; assay type: cell membranes
Chain of Cannabinoid receptor 2 (P47936 whole entry): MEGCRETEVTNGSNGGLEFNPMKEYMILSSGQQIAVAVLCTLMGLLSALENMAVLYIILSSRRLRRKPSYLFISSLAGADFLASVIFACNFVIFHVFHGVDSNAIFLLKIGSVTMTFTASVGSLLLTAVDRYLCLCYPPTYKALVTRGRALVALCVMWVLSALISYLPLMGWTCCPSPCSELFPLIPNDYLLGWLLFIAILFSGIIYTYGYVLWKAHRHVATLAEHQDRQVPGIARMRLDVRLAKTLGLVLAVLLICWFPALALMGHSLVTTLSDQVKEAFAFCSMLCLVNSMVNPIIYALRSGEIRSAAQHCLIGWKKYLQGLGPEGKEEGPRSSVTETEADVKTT

Cannabinoid receptor 1 = Cannabinoid receptor 1 (Rattus norvegicus, UniProt P20272); assay: Binding affinity to rat brain CB1 receptor assessed as inhibition constant; assay type: tissue-based
Chain of Cannabinoid receptor 1 (P20272 whole entry): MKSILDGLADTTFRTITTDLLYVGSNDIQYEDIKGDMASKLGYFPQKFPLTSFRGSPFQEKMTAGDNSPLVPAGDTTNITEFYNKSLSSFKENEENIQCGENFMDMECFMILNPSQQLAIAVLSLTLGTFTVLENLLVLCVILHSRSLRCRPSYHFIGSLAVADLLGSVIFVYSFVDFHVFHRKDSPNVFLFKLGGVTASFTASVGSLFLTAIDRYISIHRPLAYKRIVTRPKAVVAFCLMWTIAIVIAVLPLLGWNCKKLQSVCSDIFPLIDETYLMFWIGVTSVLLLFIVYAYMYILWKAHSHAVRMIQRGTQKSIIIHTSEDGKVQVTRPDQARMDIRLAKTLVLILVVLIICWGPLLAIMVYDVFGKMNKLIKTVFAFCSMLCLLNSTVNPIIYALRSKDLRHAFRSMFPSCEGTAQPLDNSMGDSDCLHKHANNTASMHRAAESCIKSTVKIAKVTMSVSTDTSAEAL

## CCCCCCCCCCCCCC[C@@H]1CCCN1C
P815
  IC50: 10 µg/mL (≈ 35.5 µM)
[1]
  IC50: 5 µg/mL (≈ 17.8 µM)

## CC(C)=CCC/C(C)=C/[C@H]1C(=O)C(C)=C[C@@H]1O
[2]
  IC50: 13.2 µg/mL (≈ 56.3 µM)
[3]
  IC50: 5 µg/mL (≈ 21.3 µM)

## C=C1/C=C(\C)[C@@H](C)[C@@H](O)CC(=O)[C@@H](C)CC(=O)C[C@H]2CC[C@@H](O2)[C@@H](/C=C/C=C(C)C)OC(=O)C[C@@H]2O[C@H](C[C@H]2C)[C@H](O)[C@@H]1O
KB
  IC50: 3.2 µg/mL (≈ 5.19 µM)
L1210
  IC50: 1.5 µg/mL (≈ 2.43 µM)

## CCCCCCC1(c2cc(O)c3c(c2)OC(C)(C)[C@@H]2CC[C@@H](O)C[C@@H]32)CN(C)C1
Cannabinoid receptor 2
  Ki: 21.3 nM
Cannabinoid receptor 1
  Ki: 19.2 nM

## COCOc1cc(C2=NCCC2)cc2c1[C@@H]1C[C@H](OCOC)CC[C@H]1C(C)(C)O2
Cannabinoid receptor 2
  Ki: 12.3 nM
Cannabinoid receptor 1
  Ki: 16.3 nM

## C=C1/C=C(\C)[C@@H](C)[C@@H](O)CC(=O)[C@@H](C)CC(=O)C[C@H]2CC[C@@H](O2)[C@@H](/C=C/C=C(\C)[C@@H](O)C(=C)CCCC)OC(=O)C[C@@H]2O[C@H](C[C@H]2C)[C@H](O)[C@@H]1O
KB
  IC50: 0.0046 µg/mL (≈ 0.00643 µM)
L1210
  IC50: 0.0058 µg/mL (≈ 0.00811 µM)

## CC(C)=CCC/C(C)=C\[C@H]1C(=O)C(C)=C[C@@H]1O
[2]
  IC50: 5.7 µg/mL (≈ 24.3 µM)
[3]
  IC50: 2 µg/mL (≈ 8.53 µM)
